Data on 8 compounds can be found in PubChem BioAssay (NCI).

Holding throughout (assay): growth of human tumour cells (NCI), 48 h
In experiment [1] the test system is T-47D breast.
Experiment [2] has as its system OVCAR-8 ovarian.
The test system of experiment [3] is HOP-62 NSCLC.
Experiment [4] deals with LOX IMVI melanoma.
In experiment [5] the test system is HCC-2998 colon.
The test system of experiment [6] is UACC-257 melanoma.
The test system of experiment [7] is HCT-116 colon.
The subject of experiment [8] is SF-539 CNS.
Experiment [9] has as its system SNB-75 CNS.
Experiment [10] deals with EKVX NSCLC.
In experiment [11] the test system is NCI/ADR-RES ovarian.
The test system of experiment [12] is COLO 205 colon.
Experiment [13] deals with A549 NSCLC.
The subject of experiment [14] is HOP-92 NSCLC.
Experiment [15] has as its system RPMI-8226 leukemia.
Experiment [16] relates to CAKI-1 renal.
In experiment [17] the test system is BT-549 breast.
In experiment [18] the test system is A498 renal.
The subject of experiment [19] is UO-31 renal.
Experiment [20] relates to SK-OV-3 ovarian.

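Step 1: Grow cells in 96-well plates. Step 2: Expose to compound for 48 hours at 5 concentrations. Step 3: Interpolate endpoints linearly; if unreached, use highest concentration. TGI: concentration producing complete growth inhibition.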

For `Cc1nn(C(=O)c2ccncc2)c2c1C(c1ccccc1[N+](=O)[O-])SC(N)=N2` (centres undefined), the TGI in experiment [1], in experiment [2], in experiment [3], in experiment [4], in experiment [5] and in experiment [6] was greater than 10 µM in each case. Further, the TGI in [7], in [8], in [9], in experiment [10], in experiment [11] and in [12] was greater than 10 µM each time. In addition, the TGI in [13], in experiment [14], in [15], in experiment [16] and in experiment [17] was greater than 10 µM in each case.

With `COc1ccccc1N/C(SCc1ccccc1)=C(/C(Cl)=C(Cl)Cl)[N+](=O)[O-]`, the TGI in experiment [1] was 65.6 µM; in [2], 27.4 µM; in experiment [3], greater than 100 µM; in experiment [6] it was greater than 100 µM; in [7], greater than 100 µM; in [8] it was 31.1 µM. Further, the TGI in experiment [9] is 84.2 µM; in [10], greater than 100 µM; in experiment [11], 78.8 µM; in [18] it was greater than 100 µM; in experiment [12], 33.7 µM; in [19], 34.6 µM. Also, the TGI in experiment [13] is greater than 100 µM; in [15], 88.2 µM; in [16], 74.9 µM; in experiment [20], greater than 100 µM; in experiment [17], 32.9 µM.

On to `CC(C)OP(=O)(OC(C)C)C(C)(C)O`, for which the TGI in experiment [1], in experiment [2], in experiment [3], in experiment [4], in experiment [5] and in experiment [6] was greater than 100 µM each time. The TGI in experiment [7], in experiment [8], in experiment [9], in [10], in experiment [11] and in experiment [12] was greater than 100 µM in each case. Also, the TGI in experiment [19], in experiment [13], in experiment [14], in experiment [15], in experiment [16] and in experiment [20] was greater than 100 µM throughout. Moreover, the TGI in experiment [17] is greater than 100 µM.

For the compound `O=c1c(Sc2c(SCSc3cnc4ccccc4c3Sc3c[nH]c4ccccc4c3=O)cnc3ccccc23)c[nH]c2ccccc12`, the TGI in experiment [1], in experiment [2], in experiment [3], in experiment [4], in [5] and in experiment [6] was greater than 100 µM throughout. For the same compound, the TGI in [7], in experiment [8], in [9], in [10], in experiment [11] and in experiment [12] was greater than 100 µM in each case. The TGI in experiment [19], in experiment [14], in [15], in [16] and in experiment [17] was greater than 100 µM in each case.

Consider `CC(=O)N1C(Nc2nccs2)CCN1c1ccccc1` (centres undefined), for which the TGI in [1], in [2], in experiment [3], in [4], in [5] and in [6] was greater than 10 µM each time. In addition, the TGI in experiment [7], in experiment [8], in experiment [9], in experiment [10], in experiment [11] and in experiment [12] was greater than 10 µM each time. The TGI in [13], in [14], in [15], in experiment [16] and in experiment [17] was greater than 10 µM each time.

On to `C=C1C(=O)O[C@H]2C1C[C@H](O)[C@@]1(C)OC1CC[C@@]1(C)O[C@H]21` (some centres undefined), for which the TGI in experiment [1] worked out at 36.4 µM; in [2], 39.6 µM; in experiment [3], 73.3 µM; in [5] it was 28.5 µM; in experiment [6], 37.8 µM; in experiment [7], 30.2 µM. For the same compound, the TGI in experiment [9] is greater than 100 µM; in experiment [10], 38.4 µM; in experiment [11] it was 44 µM; in experiment [12] it was 16.9 µM; in experiment [19], 31 µM; in experiment [13], greater than 100 µM. Besides, the TGI in experiment [14] was 36.5 µM; in experiment [15] it was 30.2 µM; in experiment [16] it was 33.5 µM; in experiment [20], greater than 100 µM; in experiment [17], 26.9 µM.

Take `O=C1Oc2ccccc2C(=O)/C1=C/N1C(=O)CNC1=S`: the TGI in [1], in [2], in [3], in experiment [4], in [5] and in [6] was greater than 100 µM throughout. Moreover, the TGI in experiment [7], in experiment [8], in experiment [10], in experiment [11], in [12] and in experiment [19] was greater than 100 µM in each case. In addition, the TGI in [13], in experiment [15], in experiment [16], in experiment [20] and in experiment [17] was greater than 100 µM each time.

Turning to `O=C(Nc1ccccc1)OCCN=C1c2ccccc2CCc2ccccc21`, the TGI was 45 µM in experiment [1]; greater than 100 µM in experiment [2]; 49.4 µM in [3]; 49.4 µM in experiment [4]; 45.9 µM in [5]; 54.2 µM in experiment [6]. Also, the TGI in experiment [7] was 30 µM; in experiment [8], 34.8 µM; in experiment [9], greater than 100 µM; in experiment [10], greater than 100 µM; in experiment [11] it was 72.4 µM; in [12], 33.1 µM. Besides, the TGI is 43.7 µM in experiment [19]; greater than 100 µM in experiment [13]; 36.1 µM in experiment [15]; 88 µM in [16]; 92.3 µM in experiment [20]; 42.1 µM in experiment [17].
